The subject of data set [1] is Male HWT mice. It counts as in vivo. Particulars: for Kidneys mean weight ± standard error: 2 weeks. The method, then:
(§1) Male HWT mice, 12 weeks old, were treated daily for 2 weeks, with 5 animals per treatment group. The test compounds were the compound of Examples 1 and 4 (as representative of compounds of the invention having the pregenolone-like and progesterone-like skeletons respectively). Ketoconazole was also tested at three different doses. The test compounds were made up in 5% benzyl alcohol, 95% safflower oil, and were given i.p.. In addition to an untreated control group of animals, there was also a solvent control group which received the same volume of liquid as the test group (5 ml/kg) but no test compound. All animals were sacrificed 24 hours after the last injection. Blood was collected by cardiac puncture into heparinized tubes, and the plasma used for RIA (radio immunoassay) of testosterone and luteinising hormone. The following organs were removed and weighed: adrenals, prostate, seminal vesicles, testes, kidneys. There was no significant body weight loss in any group of mice during the experiments.

Data set [2] deals with testosterone and luteinising hormone. Description: In vivo endocrine test in mice (plasma testosterone and LH by RIA). Details: species or system mice (male HWT). The conditions noted are these: 2 weeks.
Experimental: Male HWT mice, 12 weeks old, were treated daily for 2 weeks, with 5 animals per treatment group. […] The test compounds were made up in 5% benzyl alcohol, 95% safflower oil, and were given i.p.. In addition to an untreated control group of animals, there was also a solvent control group which received the same volume of liquid as the test group (5 ml/kg) but no test compound. All animals were sacrificed 24 hours after the last injection. Blood was collected by cardiac puncture into heparinized tubes, and the plasma used for RIA (radio immunoassay) of testosterone and luteinising hormone.
Details of data set [3]: species or system mice (male HWT). The conditions noted are these: mouse, in vivo, ip. As for the experimental part: as §1
In Ketoconazole-treated animals, adhesions were found in 2/5,2/5,4/5 of the low/middle/top dose groups. […] The livers were brown in the middle/top dose groups.

For data set [4], the target named is T1, C17-C20 lyase (Homo sapiens, UniProt P05093).
T1 construct: A microsomal preparation was prepared essentially as described by S. E. Barrie et al; from tissue; host or cells: human testis microsomes
T1 sequence (P05093 1-508): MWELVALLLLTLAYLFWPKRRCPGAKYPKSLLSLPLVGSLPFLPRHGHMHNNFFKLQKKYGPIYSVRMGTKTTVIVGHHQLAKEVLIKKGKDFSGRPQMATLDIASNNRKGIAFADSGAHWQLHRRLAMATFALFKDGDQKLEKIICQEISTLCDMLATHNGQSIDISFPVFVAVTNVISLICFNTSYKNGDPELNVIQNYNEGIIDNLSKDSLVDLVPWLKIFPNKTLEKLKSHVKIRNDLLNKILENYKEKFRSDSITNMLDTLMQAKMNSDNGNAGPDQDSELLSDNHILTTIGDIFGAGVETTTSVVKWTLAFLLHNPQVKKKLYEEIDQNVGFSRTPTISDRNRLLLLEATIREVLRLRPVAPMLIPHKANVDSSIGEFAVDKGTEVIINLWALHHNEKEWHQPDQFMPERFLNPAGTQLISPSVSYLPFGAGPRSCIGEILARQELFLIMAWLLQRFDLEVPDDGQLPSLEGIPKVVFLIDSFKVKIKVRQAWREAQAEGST
Nature of the data set: Determination of C17-C20 lyase inhibition (human testicular microsomes, 3H-17α-hydroxyprogesterone substrate). It counts as biochemical. The conditions noted are these: for concentration required to achieve 50% inhibition of lyase, compared with the 3-pyridyl (in words): relative to 3-pyridyl compound.
Experimental: (§2) Human testes were obtained from previously untreated patients undergoing orchidectomy for prostatic cancer. The testes were decapsulated and stored in liquid nitrogen until use. […] The material was then thawed, finely chopped, and homogenised in 0.25M sucrose (5 ml/g wet weight) using a Potter homogeniser. The homogenate was centrifuged at 12000 g for 30 min, and then the microsomes were pelleted by spinning the supernatant at 100,000 g for 1 hr. The pellet was washed by being resuspended in 0.25M sucrose and repelleted. The microsomal pellet was then resuspended in 50 mM sodium phosphate pH 7.4/ glycerol (3/1 v/v) and stored in aliquots in liquid nitrogen.
(§3) The basic assay mixture was EDTA (0.2 mM), dithiothreitol (DTT; 0.1 mM), NADPH (0.25 mM), glucose 6-phosphate dehydrogenase (G6PDH; 6.25 μg/ml), MgCl2 (1 mM), glucose 6-phosphate (G6P; 10 mM) and the substrate, ^3 H-progesterone (3 μM) in sodium phosphate (50 mm), pH 7.4. The compounds under test were dissolved in 50% DMSO and the final concentrations of ethanol and DMSO were 1% each. The assay reaction was carried out for 1 hour and was terminated by the addition of 2 vols. of methanol-acetonitrile (2:1) containing approx. 100 μM unlabelled progesterone, 17α-hydroxyprogesterone, androstenedione, testosterone, and 16α-hydroxyprogesterone.
The mixture was the same as described above for the 17αt-hydroxylase except that the substrate was ^3 H-17α-hydroxy- progesterone.
The HPLC separation used for the lyase involved a mini-re-column "Uptight Guard Column" packed with PELL-ODS (pellicular octadecyl silica) and a 10 cm. main column "Apex C18" column packed with 5 μ, APEX-CAT silica.
The eluant was 38:12:50 methanol:acetonitrile:water flowing at 1 ml/min. The effluent was mixed 1:1 with Ecoscint A containing 5% methanol and 5% acetonitrile and the radioactivity was measured directly by a Berthold LB506C radiochemical detector. The lyase activity was measured as the production of androstenedione and testosterone.
The enzyme activity was measured in the presence of at least 4 concentrations of each compound. […] Data for all the other compounds were fitted by non-linear regression to the median effect equation of Chou, J. Theoret.

The target of data set [5] is T2, 17α-Hydroxylase (Homo sapiens, UniProt P05093).
T2 construct: A microsomal preparation was prepared essentially as described by S. E. Barrie et al; from tissue; host or cells: human testis microsomes
T2 sequence (P05093 1-508): T1 sequence (P05093 1-508)
Nature of the data set: Determination of 17α-hydroxylase inhibition (human testicular microsomes, 3H-progesterone substrate). Format: biochemical. The conditions noted are these: relative to 3-pyridyl compound.
Experimental: as §2, §3
The separation of the steroids by HPLC was carried out using an "Uptight" guard column packed with 40-63 μm Nucleosil C18 and a 10 cm main column packed with 5 μm Nucleosil C18 and 60% methanol as eluant. The radioactivity in the peaks of interest was monitored on-line by mixing the HPLC effluent 1:1 with Ecoscint A (National Diagnostics) scintillation fluid, containing 25% acetonitrile, and passing the mixture through a Berthold LB506C radiochemical monitor. The hydroxylase activity was measured as the production of 17α-hydroxyprogesterone, androstenedione and testosterone.
The enzyme activity was measured in the presence of at least 4 concentrations of each compound. […]

Data set [6] concerns the target T3, aromatase (Homo sapiens, UniProt P11511).
T3 construct: using human placental microsomes; from tissue; host or cells: human placental microsomes
T3 sequence (P11511 1-503): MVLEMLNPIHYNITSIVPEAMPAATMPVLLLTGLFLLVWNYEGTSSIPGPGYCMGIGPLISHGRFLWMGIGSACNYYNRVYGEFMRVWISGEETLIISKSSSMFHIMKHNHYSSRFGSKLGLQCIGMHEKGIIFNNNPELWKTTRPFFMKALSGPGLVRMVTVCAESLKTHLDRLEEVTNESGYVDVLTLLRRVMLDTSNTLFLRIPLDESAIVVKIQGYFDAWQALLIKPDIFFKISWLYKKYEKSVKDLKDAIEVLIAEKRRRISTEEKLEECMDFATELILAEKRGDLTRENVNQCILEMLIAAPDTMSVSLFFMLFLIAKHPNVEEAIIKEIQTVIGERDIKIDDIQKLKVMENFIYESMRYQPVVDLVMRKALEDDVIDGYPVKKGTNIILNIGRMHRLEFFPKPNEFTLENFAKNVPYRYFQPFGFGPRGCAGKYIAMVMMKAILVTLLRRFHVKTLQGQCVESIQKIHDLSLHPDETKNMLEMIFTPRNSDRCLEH
Format: biochemical. The conditions noted are these: human placental microsomes used; read-out: Michaelis constant Km.
Experimental: Aromatase activity was determined by the method of A. B. Foster et all., J. Med. Chem. 26, 50-54 (1983), using human placental microsomes.

Where two headings read alike, the source gives them in different places.

As for `CC(=O)O[C@H]1CC[C@@]2(C)C(=CC[C@@H]3[C@@H]2CC[C@]2(C)C(c4cccnc4)=CC[C@@H]32)C1` [Example 1, 3β-acetoxy-17-(3-pyridyl)androsta-5,16-diene], the “Kidneys mean weight ± standard error” value in data set [1] (0.02 mmol/kg/day i.p.) was 604 ± 24 mg; in data set [1] (0.1 mmol/kg/day i.p.), 500 ± 8 mg; in data set [1] (0.5 mmol/kg/day i.p.) it was 449 ± 12 mg. Further, the “Testosterone (mean ± standard error)” value in data set [2] (0.02 mmol/kg/day i.p.) worked out at 2.7 ± 0.5 nM; in data set [2] (0.1 mmol/kg/day i.p.) it was 0.2 ± 0.1 nM; in data set [2] (0.5 mmol/kg/day i.p.), 0.1 ± 0.0 nM. Also, in data set [3], the “post mortem examination: appearance of organs” value is given as “all organs looked normal”. The “post mortem examination: deposits” value in data set [3] was “oil/white deposits i.p”.
Consider `C[C@]12CC[C@H](O)CC1=CC[C@@H]1[C@@H]2CC[C@]2(C)C(c3ccccn3)=CC[C@@H]12` [Example 2-Pyridyl], for which the “concentration required to achieve 50% inhibition of lyase, compared with the 3-pyridyl (in words)” value in data set [4] is reported as “far greater”. Further, in data set [5], the “concentration required to achieve 50% inhibition of hydroxylase, compared with the 3-pyridyl (in words)” value is given as “far greater”.
Regarding `C[C@]12CC[C@H](O)CC1=CC[C@@H]1[C@@H]2CC[C@]2(C)C(Cc3ccccn3)=CC[C@@H]12` [Example 2-picolyl], in data set [4], the “concentration required to achieve 50% inhibition of lyase, compared with the 3-pyridyl (in words)” value is recorded as “far greater”. In addition, the “concentration required to achieve 50% inhibition of hydroxylase, compared with the 3-pyridyl (in words)” value in data set [5] is listed as “far greater”.
As for `C[C@]12CCC(=O)C=C1CC[C@@H]1[C@@H]2CC[C@]2(C)C(c3cccnc3)=CC[C@@H]12` [Example 4, 17-(3-Pyridyl)androsta-4,16-dien-3-one], in data set [3], the “post mortem examination: appearance of organs” value is “all organs looked normal” and the “post mortem examination: deposits” value is recorded as “white deposits throughout the abdomen”.
Consider `C[C@]12CC[C@H](O)CC1=CC[C@@H]1[C@@H]2CC[C@]2(C)C(c3ccncc3)=CC[C@@H]12` [Example 4-pyridyl], for which the “concentration required to achieve 50% inhibition of lyase, compared with the 3-pyridyl (in words)” value in data set [4] is given as “far greater”. Also, the “concentration required to achieve 50% inhibition of hydroxylase, compared with the 3-pyridyl (in words)” value in data set [5] is recorded as “far greater”.
The term IC50 denotes the concentration needed to halve the response being measured. High values mean a need for much substance, low ones inhibition by little substance. In data set [4] (Table 2, approx. 4 nM enzyme, listed as Ex. 12), `C[C@]12CCC(=O)C=C1[C@@H](F)C[C@@H]1[C@@H]2CC[C@]2(C)C(c3cccnc3)=CC[C@@H]12` [Example 12, 6α-Fluoro-17-(3-pyridyl)androsta-4,16-dien-3-one] displayed an IC50 of 2.2 nM.
`CC(=O)N1CCN(c2ccc(OCC3COC(Cn4ccnc4)(c4ccc(Cl)cc4Cl)O3)cc2)CC1` (centres unmarked) [Ketoconazole]: in data set [1] (mouse, in vivo), the “effect on adrenal weight (in words)” value was “increase in adrenal weight”. For the same compound, the “post mortem examination: gut and peritoneal wall” value in data set [3] is on record as “seemed to be stuck to the seminal vesicles”.
By Km is commonly meant the concentration of substrate that gives half-maximal velocity. For the compound `[3H][C@@H]1CC(=O)C=C2CC[C@@H]3[C@H](CC[C@]4(C)C(=O)CC[C@@H]34)[C@]21C` [[1β-^3 H]androstenedione], the Km in data set [6] is 0.039 µM.

For the origin of these results see patent US5618807A, “Method for preparing 17-substituted steroids useful in cancer treatment” (priority 1992, dated 1997).
